Data: ChEMBL document CHEMBL1140165, “Rotationally constrained 2,4-diamino-5,6-disubstituted pyrimidines: a new class of histamine H4 receptor antagonists with improved druglikeness and in vivo efficacy in pain and inflammation models” (J Med Chem, 2008)
Activity calls are given as the source filed them.

What was measured:
[1] = target: T1, Histamine H4 receptor (Rattus norvegicus, UniProt Q91ZY1); assay: Antagonist activity at rat histamine H4 receptor expressed in HEK293 cells assessed as inhibition of histamine-induced intracellular calcium elevation by FLIPR assay; type: functional, cell-based
[2] = target: T2, Histamine H4 receptor (Mus musculus, UniProt Q91ZY2); assay: Antagonist activity at mouse histamine H4 receptor expressed in HEK293 cells assessed as inhibition of histamine-induced intracellular calcium elevation by FLIPR assay; type: functional, cell-based
T2 sequence (Q91ZY2 whole entry): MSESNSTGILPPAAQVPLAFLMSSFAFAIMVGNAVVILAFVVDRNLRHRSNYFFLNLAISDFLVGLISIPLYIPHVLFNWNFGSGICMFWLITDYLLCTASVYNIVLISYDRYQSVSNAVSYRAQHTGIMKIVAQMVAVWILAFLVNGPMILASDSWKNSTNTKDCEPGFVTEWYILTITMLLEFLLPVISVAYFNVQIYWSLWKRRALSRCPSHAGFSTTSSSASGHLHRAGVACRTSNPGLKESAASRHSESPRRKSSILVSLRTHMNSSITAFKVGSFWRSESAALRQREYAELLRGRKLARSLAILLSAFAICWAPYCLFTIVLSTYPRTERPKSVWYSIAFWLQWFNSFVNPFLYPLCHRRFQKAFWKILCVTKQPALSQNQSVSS

[3] = target: T3, Histamine H4 receptor (Homo sapiens, UniProt Q9H3N8); assay: Displacement of [3H]histamine from human histamine H4 receptor expressed in HEK293 cells; type: cell-based; conditions: read-out: Ki
[4] = target: T1, Histamine H4 receptor; assay: Displacement of [3H]histamine from rat histamine H4 receptor expressed in HEK293 cells; type: cell-based
[5] = tested on: BMMC; assay: Blockade of histamine-induced morphological changes in BALB/c mouse BMMC by flow cytometry; type: functional, cell-based
[6] = Selectivity ratio of Ki for human histamine H4 receptor to Ki for histamine H1 receptor
[7] = Selectivity ratio of Ki for human histamine H4 receptor to Ki for histamine H2 receptor
[8] = species on record: Homo sapiens; assay: Selectivity ratio of Ki for human histamine H4 receptor to Ki for human histamine H3 receptor
[9] = Selectivity ratio of Ki for human histamine H4 receptor to Ki for 5HT1A receptor
[10] = Selectivity ratio of Ki for human histamine H4 receptor to Ki for 5HT1D receptor
[11] = Selectivity ratio of Ki for human histamine H4 receptor to Ki for 5HT2A receptor
[12] = Selectivity ratio of Ki for human histamine H4 receptor to Ki for dopamine D2 receptor
[13] = Selectivity ratio of Ki for human histamine H4 receptor to Ki for adrenergic alpha1 receptor
[14] = target: Prostaglandin G/H synthase 1 (Homo sapiens) (UniProt P23219); assay: Binding affinity at COX1
[15] = target: T4, Prostaglandin G/H synthase 2 (Homo sapiens) (UniProt P35354); assay: Binding affinity at COX2
T4 sequence (whole entry): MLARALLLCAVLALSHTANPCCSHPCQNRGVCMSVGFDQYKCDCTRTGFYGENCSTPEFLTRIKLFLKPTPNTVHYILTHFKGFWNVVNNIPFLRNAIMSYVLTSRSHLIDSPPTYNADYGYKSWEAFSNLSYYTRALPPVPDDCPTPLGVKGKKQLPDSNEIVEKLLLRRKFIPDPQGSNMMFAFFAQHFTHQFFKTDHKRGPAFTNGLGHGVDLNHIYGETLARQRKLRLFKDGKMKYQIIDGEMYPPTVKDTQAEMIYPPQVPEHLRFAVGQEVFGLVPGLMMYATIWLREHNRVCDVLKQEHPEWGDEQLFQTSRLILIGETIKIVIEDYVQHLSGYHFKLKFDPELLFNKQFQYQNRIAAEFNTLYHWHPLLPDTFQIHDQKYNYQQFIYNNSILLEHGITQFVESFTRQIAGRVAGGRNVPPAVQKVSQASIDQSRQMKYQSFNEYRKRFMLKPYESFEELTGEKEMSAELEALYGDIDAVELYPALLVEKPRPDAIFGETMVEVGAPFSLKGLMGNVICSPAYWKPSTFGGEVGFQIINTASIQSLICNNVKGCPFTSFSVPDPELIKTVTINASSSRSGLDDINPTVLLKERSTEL

[16] = target: Mu-type opioid receptor (Homo sapiens) (UniProt P35372); assay: Binding affinity to mu opioid receptor
[17] = target: Kappa-type opioid receptor (Homo sapiens) (UniProt P41145); assay: Binding affinity to kappa opioid receptor
[18] = target: Delta-type opioid receptor (Homo sapiens) (UniProt P41143); assay: Binding affinity to delta opioid receptor
[19] = target: Cannabinoid receptor 1 (Homo sapiens) (UniProt P21554); assay: Binding affinity to CB1 receptor
[20] = target: Cannabinoid receptor 2 (Homo sapiens) (UniProt P34972); assay: Binding affinity to CB2 receptor
[21] = tested on: Liver microsomes; assay: Metabolic stability in rat liver microsomes; type: ADME, Microsome
[22] = tested on: Liver microsomes; assay: Metabolic stability in human liver microsomes; type: ADME, Microsome
[23] = Metabolic stability in mouse liver microsomes; type: ADME, Microsome
[24] = Protein binding in rat; type: ADME, organism-based; conditions: in vivo, read-out: PB (converted)
[25] = Protein binding in human; type: ADME, organism-based; conditions: in vivo, read-out: PB (converted)
[26] = target: Cytochrome P450 3A4 (Homo sapiens, UniProt P08684); assay: Inhibition of CYP3A4 upto 10 uM; type: ADME
[27] = target: Cytochrome P450 2D6 (Homo sapiens, UniProt P10635); assay: Inhibition of CYP2D6 upto 10 uM; type: ADME
[28] = target: Cytochrome P450 2C9 (Homo sapiens, UniProt P11712); assay: Inhibition of CYP2C9 upto 10 uM; type: ADME
[29] = Ratio of drug level in brain to plasma in rat at 10 mg/kg, iv after 30 mins; type: ADME, organism-based; design: dose 10 mg/kg, route intravenous
[30] = tested on: Mus musculus; assay: Antiinflammatory activity against ip dosed BALB/c mouse assessed as inhibition of zymosan-induced peritonitis after 2 hrs pretreated 30 mins before zymosan challenge; type: functional
[31] = tested on: Mus musculus; assay: Inhibition of clobenpropit-induced itching in ip dosed CD1/ICR mouse assessed as blockade of scratching in hind paw for 25 mins pretreated 30 mins before clobenpropit challenge; type: functional
[32] = tested on: Rattus norvegicus; assay: Antinociceptive efficacy against von Frey hair mechanically stimulated post-surgical pain after skin incision in rat assessed as withdrawal threshold at 10 umol/kg, ip; type: functional
[33] = tested on: Rattus norvegicus; assay: Antinociceptive efficacy against von Frey hair mechanically stimulated post-surgical pain after skin incision in rat assessed as withdrawal threshold at 30 umol/kg, ip; type: functional
[34] = tested on: Rattus norvegicus; assay: Antinociceptive efficacy against von Frey hair mechanically stimulated post-surgical pain after skin incision in rat assessed as withdrawal threshold at 100 umol/kg, ip; type: functional
[35] = tested on: Rattus norvegicus; assay: Antinociceptive efficacy against von Frey hair mechanically stimulated post-surgical pain after skin incision in rat assessed as withdrawal threshold at 500 umol/kg, ip; type: functional
[36] = tested on: Rattus norvegicus; assay: Antinociceptive efficacy against complete Freund's adjuvant-induced thermal hyperalgesia in rat assessed as withdrawal threshold at 10 umol/kg, ip after 48 hrs; type: functional
[37] = tested on: Rattus norvegicus; assay: Antinociceptive efficacy against complete Freund's adjuvant-induced thermal hyperalgesia in rat assessed as withdrawal threshold at 30 umol/kg, ip after 48 hrs; type: functional
[38] = tested on: Rattus norvegicus; assay: Antinociceptive efficacy against complete Freund's adjuvant-induced thermal hyperalgesia in rat assessed as withdrawal threshold at 100 umol/kg, ip after 48 hrs; type: functional
[39] = tested on: Rattus norvegicus; assay: Antinociceptive efficacy against complete Freund's adjuvant-induced thermal hyperalgesia in rat assessed as withdrawal threshold at 500 umol/kg, ip after 48 hrs; type: functional
[40] = target: T3, Histamine H4 receptor; conditions: HEK293
[41] = Half life in rat at 10 mg/kg, iv; type: ADME, organism-based; design: dose 10 mg/kg, route intravenous; conditions: in vivo
[42] = Blood clearance in rat at 10 mg/kg, iv; type: ADME, organism-based; design: dose 10 mg/kg, route intravenous; conditions: whole blood
[43] = Terminal volume of distribution in rat at 10 mg/kg, iv; type: ADME, organism-based; design: dose 10 mg/kg, route intravenous; conditions: in vivo, read-out: Vbeta
[44] = Fractional bioavailability in rat at 10 mg/kg, iv and 10 mg/kg, po; type: ADME, organism-based; conditions: in vivo
[45] = Half life in mouse at 5 mg/kg, iv; type: ADME, organism-based; design: dose 5 mg/kg, route intravenous; conditions: in vivo
[46] = Blood clearance in mouse at 5 mg/kg, iv; type: ADME, organism-based; design: dose 5 mg/kg, route intravenous; conditions: whole blood
[47] = Terminal volume of distribution in mouse at 5 mg/kg, iv; type: ADME, organism-based; design: dose 5 mg/kg, route intravenous; conditions: in vivo, read-out: Vbeta
[48] = Fractional bioavailability in rat at 5 mg/kg, iv and 5 mg/kg, po; type: ADME, organism-based; conditions: in vivo

T1 sequence (Q91ZY1 whole entry): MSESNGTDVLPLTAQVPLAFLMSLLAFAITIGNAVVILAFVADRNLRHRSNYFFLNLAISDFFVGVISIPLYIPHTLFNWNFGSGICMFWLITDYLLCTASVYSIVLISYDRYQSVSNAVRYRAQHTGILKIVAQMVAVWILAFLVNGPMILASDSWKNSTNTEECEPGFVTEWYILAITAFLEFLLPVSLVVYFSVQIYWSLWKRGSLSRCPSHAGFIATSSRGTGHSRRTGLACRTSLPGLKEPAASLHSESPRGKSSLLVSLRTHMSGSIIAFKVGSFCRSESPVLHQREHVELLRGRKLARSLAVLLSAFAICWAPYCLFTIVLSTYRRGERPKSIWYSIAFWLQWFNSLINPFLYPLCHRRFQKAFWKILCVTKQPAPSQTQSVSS
T3 sequence (Q9H3N8 whole entry): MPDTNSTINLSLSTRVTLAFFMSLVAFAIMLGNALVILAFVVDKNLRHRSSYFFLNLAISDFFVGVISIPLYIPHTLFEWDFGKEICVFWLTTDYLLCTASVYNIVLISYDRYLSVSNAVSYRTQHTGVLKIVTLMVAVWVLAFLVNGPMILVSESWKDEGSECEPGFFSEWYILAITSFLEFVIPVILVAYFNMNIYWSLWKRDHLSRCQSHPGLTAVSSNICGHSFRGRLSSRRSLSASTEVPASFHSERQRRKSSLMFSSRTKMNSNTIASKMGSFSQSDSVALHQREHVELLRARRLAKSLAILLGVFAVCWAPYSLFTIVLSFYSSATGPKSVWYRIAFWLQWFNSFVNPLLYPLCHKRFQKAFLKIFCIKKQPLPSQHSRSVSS
Sequence of Cytochrome P450 2D6 (P10635 whole entry): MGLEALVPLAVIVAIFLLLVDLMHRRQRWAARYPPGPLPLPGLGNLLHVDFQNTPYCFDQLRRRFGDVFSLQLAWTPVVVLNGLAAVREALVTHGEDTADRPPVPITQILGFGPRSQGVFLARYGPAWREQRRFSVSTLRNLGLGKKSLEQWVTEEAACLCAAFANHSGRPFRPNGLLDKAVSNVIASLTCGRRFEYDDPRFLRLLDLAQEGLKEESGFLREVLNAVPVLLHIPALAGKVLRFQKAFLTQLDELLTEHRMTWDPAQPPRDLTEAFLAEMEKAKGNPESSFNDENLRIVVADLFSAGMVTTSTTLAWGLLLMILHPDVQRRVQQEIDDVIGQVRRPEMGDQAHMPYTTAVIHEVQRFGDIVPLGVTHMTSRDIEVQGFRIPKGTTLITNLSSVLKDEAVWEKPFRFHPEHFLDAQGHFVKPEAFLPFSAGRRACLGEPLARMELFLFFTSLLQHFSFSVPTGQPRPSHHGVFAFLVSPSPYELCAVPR
Sequence of Cytochrome P450 3A4 (P08684 whole entry): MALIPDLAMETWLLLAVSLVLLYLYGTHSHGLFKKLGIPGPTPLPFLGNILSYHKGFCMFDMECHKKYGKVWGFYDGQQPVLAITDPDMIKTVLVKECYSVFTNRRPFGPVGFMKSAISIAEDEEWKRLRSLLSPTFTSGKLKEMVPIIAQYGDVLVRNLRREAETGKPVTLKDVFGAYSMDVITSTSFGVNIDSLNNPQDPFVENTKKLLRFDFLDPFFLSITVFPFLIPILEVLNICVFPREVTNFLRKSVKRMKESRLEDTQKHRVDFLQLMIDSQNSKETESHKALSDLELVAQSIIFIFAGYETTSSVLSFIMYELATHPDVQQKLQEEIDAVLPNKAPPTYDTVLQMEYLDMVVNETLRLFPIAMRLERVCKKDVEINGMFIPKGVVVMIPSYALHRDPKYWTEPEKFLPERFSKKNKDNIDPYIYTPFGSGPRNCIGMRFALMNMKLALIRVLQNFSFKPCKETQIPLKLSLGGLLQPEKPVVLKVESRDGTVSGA
Sequence of Cytochrome P450 2C9 (P11712 whole entry): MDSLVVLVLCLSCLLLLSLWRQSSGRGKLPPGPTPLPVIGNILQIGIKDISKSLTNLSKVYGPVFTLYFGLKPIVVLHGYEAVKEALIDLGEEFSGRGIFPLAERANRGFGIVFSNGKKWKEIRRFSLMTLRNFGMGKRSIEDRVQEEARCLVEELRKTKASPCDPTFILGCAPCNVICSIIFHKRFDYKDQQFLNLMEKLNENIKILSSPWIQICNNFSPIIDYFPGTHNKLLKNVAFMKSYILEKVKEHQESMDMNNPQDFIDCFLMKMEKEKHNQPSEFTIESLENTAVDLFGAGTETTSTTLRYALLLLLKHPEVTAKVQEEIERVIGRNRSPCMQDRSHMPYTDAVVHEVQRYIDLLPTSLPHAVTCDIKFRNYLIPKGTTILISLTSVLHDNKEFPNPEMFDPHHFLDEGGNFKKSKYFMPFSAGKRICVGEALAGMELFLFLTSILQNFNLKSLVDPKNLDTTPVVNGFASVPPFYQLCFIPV
Sequence of Mu-type opioid receptor (Homo sapiens) (P35372 whole entry): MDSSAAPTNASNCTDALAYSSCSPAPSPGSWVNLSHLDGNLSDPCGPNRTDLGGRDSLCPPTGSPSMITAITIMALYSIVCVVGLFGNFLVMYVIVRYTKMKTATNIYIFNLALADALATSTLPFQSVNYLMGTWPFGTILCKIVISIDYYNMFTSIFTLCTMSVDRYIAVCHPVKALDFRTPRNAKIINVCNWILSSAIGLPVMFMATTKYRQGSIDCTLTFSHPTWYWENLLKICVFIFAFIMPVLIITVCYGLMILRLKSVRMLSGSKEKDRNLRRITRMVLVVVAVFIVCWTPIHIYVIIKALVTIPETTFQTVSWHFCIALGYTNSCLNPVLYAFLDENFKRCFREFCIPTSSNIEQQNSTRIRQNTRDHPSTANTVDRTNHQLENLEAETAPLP
Sequence of Cannabinoid receptor 2 (Homo sapiens) (P34972 whole entry): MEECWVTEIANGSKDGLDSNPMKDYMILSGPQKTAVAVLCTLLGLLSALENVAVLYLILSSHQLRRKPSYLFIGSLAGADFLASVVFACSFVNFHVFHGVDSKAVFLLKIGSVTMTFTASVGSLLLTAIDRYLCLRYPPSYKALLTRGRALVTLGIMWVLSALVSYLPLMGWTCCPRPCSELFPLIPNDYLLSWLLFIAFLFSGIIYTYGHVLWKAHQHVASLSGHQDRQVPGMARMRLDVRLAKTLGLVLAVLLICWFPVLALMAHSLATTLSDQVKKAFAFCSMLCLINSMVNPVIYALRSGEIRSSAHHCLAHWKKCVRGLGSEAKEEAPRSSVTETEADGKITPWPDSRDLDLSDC
Sequence of Cannabinoid receptor 1 (Homo sapiens) (P21554 whole entry): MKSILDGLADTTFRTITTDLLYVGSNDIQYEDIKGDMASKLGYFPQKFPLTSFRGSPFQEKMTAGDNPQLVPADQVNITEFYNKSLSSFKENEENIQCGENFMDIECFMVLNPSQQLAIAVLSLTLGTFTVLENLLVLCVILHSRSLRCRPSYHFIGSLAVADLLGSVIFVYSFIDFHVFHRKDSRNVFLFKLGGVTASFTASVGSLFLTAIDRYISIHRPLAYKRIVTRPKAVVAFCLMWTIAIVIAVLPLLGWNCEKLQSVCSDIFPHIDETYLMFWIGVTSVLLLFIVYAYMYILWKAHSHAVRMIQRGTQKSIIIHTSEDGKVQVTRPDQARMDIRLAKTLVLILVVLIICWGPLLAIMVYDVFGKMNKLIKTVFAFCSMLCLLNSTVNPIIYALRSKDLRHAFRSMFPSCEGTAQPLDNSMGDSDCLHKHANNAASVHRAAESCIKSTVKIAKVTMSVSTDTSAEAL
Sequence of Delta-type opioid receptor (Homo sapiens) (P41143 whole entry): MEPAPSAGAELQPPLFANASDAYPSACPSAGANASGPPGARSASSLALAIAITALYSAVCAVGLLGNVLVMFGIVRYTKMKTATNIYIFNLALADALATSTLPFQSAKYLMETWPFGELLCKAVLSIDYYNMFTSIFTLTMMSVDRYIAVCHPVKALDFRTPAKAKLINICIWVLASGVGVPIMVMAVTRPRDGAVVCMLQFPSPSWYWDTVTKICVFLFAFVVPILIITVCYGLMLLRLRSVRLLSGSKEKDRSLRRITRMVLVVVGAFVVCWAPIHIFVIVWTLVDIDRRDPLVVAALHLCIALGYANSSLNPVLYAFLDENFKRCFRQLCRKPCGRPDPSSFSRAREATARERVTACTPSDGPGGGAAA
Sequence of Kappa-type opioid receptor (Homo sapiens) (P41145 whole entry): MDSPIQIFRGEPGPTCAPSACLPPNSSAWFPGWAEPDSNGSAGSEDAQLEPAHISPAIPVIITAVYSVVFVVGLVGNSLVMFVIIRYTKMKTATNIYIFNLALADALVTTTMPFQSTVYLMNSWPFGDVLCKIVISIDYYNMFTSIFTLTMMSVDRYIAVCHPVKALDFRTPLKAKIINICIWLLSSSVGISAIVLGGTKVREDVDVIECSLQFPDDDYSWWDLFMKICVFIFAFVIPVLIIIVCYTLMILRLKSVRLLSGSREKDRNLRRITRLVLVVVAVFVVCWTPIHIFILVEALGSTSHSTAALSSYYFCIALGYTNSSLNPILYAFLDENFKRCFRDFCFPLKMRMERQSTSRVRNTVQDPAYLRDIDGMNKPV
Sequence of Prostaglandin G/H synthase 1 (Homo sapiens) (P23219 whole entry): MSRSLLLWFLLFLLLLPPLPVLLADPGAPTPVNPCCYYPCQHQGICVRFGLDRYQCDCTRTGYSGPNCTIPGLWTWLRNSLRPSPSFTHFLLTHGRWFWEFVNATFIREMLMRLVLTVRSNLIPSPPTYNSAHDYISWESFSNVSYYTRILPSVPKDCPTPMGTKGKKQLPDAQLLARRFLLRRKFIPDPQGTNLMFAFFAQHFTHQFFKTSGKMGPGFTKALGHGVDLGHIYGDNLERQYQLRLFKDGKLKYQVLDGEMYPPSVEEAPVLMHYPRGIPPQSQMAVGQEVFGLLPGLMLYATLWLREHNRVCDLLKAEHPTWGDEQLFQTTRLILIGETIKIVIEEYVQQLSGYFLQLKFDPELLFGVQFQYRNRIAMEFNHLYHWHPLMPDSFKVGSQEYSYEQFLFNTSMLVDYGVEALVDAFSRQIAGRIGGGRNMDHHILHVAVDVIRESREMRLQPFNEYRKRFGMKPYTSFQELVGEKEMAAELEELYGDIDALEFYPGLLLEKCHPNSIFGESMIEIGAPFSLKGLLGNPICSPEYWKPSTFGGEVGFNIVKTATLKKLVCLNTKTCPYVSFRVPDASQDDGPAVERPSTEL

SMILES | EC50 [1] [nM] | EC50 [2] [nM] | Ki [3] [nM] | Ki [4] [nM] | Activity [5] | Ratio Ki [6] | Ratio Ki [7] | Ratio Ki [8] | Ratio Ki [9] | Ratio Ki [10] | Ratio Ki [11] | Ratio Ki [12] | Ratio Ki [13] | Stability [21] [pmol/min/mg] | Stability [22] [pmol/min/mg] | Stability [23] [pmol/min/mg] | fraction unbound [24] | fraction unbound [25] | Activity [26] | Activity [27] | other results
CN[C@@H]1CCN(c2nc(N)nc3c2CCCc2ccccc2-3)C1 | 6.61 | 4.37 | 3.5 | 5.13 | Active | > 1890 | > 1300 | 570 | 460 | 235 | 2030 | 1820 | 150 | 173 | 20.7 | 29.7 | 0.43 | 0.51 | Not Active | Not Active | Activity [14]: inactive; Activity [15]: inactive; Activity [16]: inactive; Activity [17]: inactive; Activity [18]: inactive; Activity [19]: inactive; Activity [20]: inactive; Activity [28]: Not Active; Kp at 0.5 h [29]: 3; ED50 [30]: 100 µmol/kg; ED50 [31]: 235 µmol/kg; Efficacy [32]: 9%; Efficacy [33]: 21%; Efficacy [34]: 69%; Efficacy [35]: 55%; Efficacy [36]: 34%; Efficacy [37]: 35%; Efficacy [38]: 49%; Efficacy [39]: 79%; pKb [40]: 8.21
Nc1nc2c(c(N3CCNCC3)n1)CCCc1ccccc1-2 | 14.8 | 18.2 | 71 | 7.59 | Active | > 93 | > 130 | 52 | 13 | 17 | > 185 | > 140 | 110 | 95.4 | 14.5 | 14 | 0.42 | 0.56 | Not Active | Not Active | Activity [28]: Not Active; half-life [41]: 2.2 h; clearance [42]: 102 mL/min/kg; Vd [43]: 19.9 L/kg; bioavailability [44]: 37%; half-life [45]: 4.9 h; clearance [46]: 378 mL/min/kg; Vd [47]: 88.9 L/kg; bioavailability [48]: 33%; Kp at 0.5 h [29]: 2.1; ED50 [30]: 21 µmol/kg; ED50 [31]: > 72 µmol/kg; pKb [40]: 7.13
